In patent US11072611B2, “Compounds and pharmaceutical compositions thereof for the treatment of inflammatory disorders” (Galapagos NV, priority 2013, dated 2021) one finds IC50 data, which are given here for 26 compounds.

Structures are written as SMILES.

The test system of this assay is LPA 18:2. Nature of the assay: Rat whole blood (plasma) LPA assay. As to conditions: 2 h at 37° C., LPA 18:2 by LC-MS/MS. It counts as biochemical. On the procedure: Whole blood is collected from rats or mouse by exsanguinations on sodium heparin tube, then after centrifugation at 3000 rpm for 15 min at 4° C., plasma is stored at −80° C. Compounds are diluted in DMSO in concentration dependent manner then 0.5 μL are dispensed into 96-well plate placed in ice. Plasma is defrosted on ice then 49.5 μL of plasma are added into the well containing 0.5 μL of compound (1% DMSO final). Plates are covered with a lid in polypropylene and incubated at +37° C., 5% CO2, for 2 h under gentle shaking (except controls which are stored at −20° C.).
At the end of the incubation, controls are defrosted in ice and transferred in the incubated plates for LC-MS/MS analysis with a non GLP-validated method. For the analysis, plasma proteins from a 10 μL incubated plates are precipitated with an excess of methanol containing the internal standard, LPA 17:0. After centrifugation, the corresponding supernatant is injected on a C18 column. Analytes are eluted out of the column under isocratic conditions. An API5500 QTRAP mass spectrometer (ABSciex™) is used for the detection of LPA 18:2. No calibration curve is prepared for LPA 18:2, however relative quantities are evaluated based on the peak area.
Regarding `CCc1nc2ccc(N3CCS(=O)(=O)CC3)cn2c1N(C)c1nc(-c2ccc(F)cc2)cs1` [Compound 182, 4-(2-ethyl-3-((4-(4-fluorophenyl)thiazol-2-yl)(methyl)amino)imidazo[1,2-a]pyridin-6-yl)-thiomorpholine 1,1-dioxide], the IC50 was > 1000 nM.

As to `CCc1nc2ccc(C3=CCN(S(C)(=O)=O)CC3)cn2c1N(C)c1nc(-c2ccc(OC(F)(F)F)cc2)cs1` [Compound 72, N-(2-ethyl-6-(1-(methylsulfonyl)-1,2,3,6-tetrahydropyridin-4-yl)imidazo[1,2-a]pyridin-3-yl)-N-methyl-4-(4-(trifluoromethoxy)phenyl)thiazol-2-amine], the IC50 is > 1000 nM.

On to `CCc1nc2ccc(N3CCN(CC(=O)N(C)C)CC3)cn2c1N(C)c1nc(-c2ccc(F)cc2)c(C#N)s1` [Compound 140, 2-(4-(3-((5-cyano-4-(4-fluorophenyl)thiazol-2-yl)(methyl)amino)-2-ethylimidazo[1,2-a]pyridin-6-yl)piperazin-1-yl)-N,N-dimethylacetamide], for which the IC50 is 0.01 to 100 nM.

For `CCc1nc2ccc(N3CCN(S(C)(=O)=O)CC3)cn2c1N(C)c1nc(-c2ccc(F)cc2)cs1` [Compound 54, N-(2-ethyl-6-(4-(methylsulfonyl)piperazin-1-yl)imidazo[1,2-a]pyridin-3-yl)-4-(4-fluorophenyl)-N-methylthiazol-2-amine], the IC50 is > 1000 nM.

`CCc1nc2ccc(C3CCN(S(C)(=O)=O)CC3)cn2c1N(C)c1nc(-c2ccc(F)cc2)c(C(=O)C(F)(F)F)s1` [Compound 160, 1-(2-((2-ethyl-6-(1-(methylsulfonyl)piperidin-4-yl)imidazo[1,2-a]pyridin-3-yl)(methyl)amino)-4-(4-fluorophenyl)thiazol-5-yl)-2,2,2-trifluoroethanone] displayed an IC50 of 0.01 to 100 nM.

`CCc1nc2c(F)cc(N3CCN(CC(=O)NC)CC3)cn2c1N(C)c1nc(-c2ccc(F)cc2)c(C#N)s1` [Compound 13, 2-(4-(3-((5-cyano-4-(4-fluorophenyl)thiazol-2-yl)(methyl)amino)-2-ethyl-8-fluoroimidazo[1,2-a]pyridin-6-yl)piperazin-1-yl)-N-methylacetamide] came in with an IC50 of 0.01 to 100 nM.

For the compound `CCc1nc2ccc(N3CCN(CCO)CC3)cn2c1N(C)c1nc(-c2ccc(Cl)cc2)cs1` [Compound 212, 2-(4-(3-((4-(4-chlorophenyl)thiazol-2-yl)(methyl)amino)-2-ethylimidazo[1,2-a]pyridin-6-yl)piperazin-1-yl)ethanol], the IC50 was > 1000 nM.

For the compound `CCc1nc2ccc(N3CCOC3=O)cn2c1N(C)c1nc(-c2ccc(Cl)cc2)cs1` [Compound 206, 3-(3-((4-(4-chlorophenyl)thiazol-2-yl)(methyl)amino)-2-ethylimidazo[1,2-a]pyridin-6-yl)oxazolidin-2-one], the IC50 is > 1000 nM.

The compound `CCc1nc2ccc(C3CCN(CC(=O)N4CCCC4)CC3)cn2c1N(C)c1nc(-c2ccc(F)cc2)cs1` [Compound 115, 2-(4-(2-ethyl-3-((4-(4-fluorophenyl)thiazol-2-yl)(methyl)amino)imidazo[1,2-a]pyridin-6-yl)piperidin-1-yl)-1-(pyrrolidin-1-yl)ethanone] registered an IC50 of 0.01 to 100 nM.

As for `CCc1nc2ccc(N3CCS(=O)(=O)CC3)cn2c1N(C)c1nc(-c2ccc(Cl)cc2)cs1` [Compound 213, 4-(2-ethyl-3-((4-(4-chlorophenyl)thiazol-2-yl)(methyl)amino)imidazo[1,2-a]pyridin-6-yl)-thiomorpholine-1,1-dioxide], the IC50 is > 1000 nM.

For the compound `CCc1nc2ccc(N3CCN(CCO)CC3)cn2c1N(C)c1nc(-c2ccc(F)cc2)cs1` [Compound 180, 2-(4-(2-ethyl-3-((4-(4-fluorophenyl)thiazol-2-yl)(methyl)amino)imidazo[1,2-a]pyridin-6-yl)piperazin-1-yl)ethanol], the IC50 is > 1000 nM.

With `CCc1nc2ccc(N3CCN(S(=O)(=O)CCCO)CC3)cn2c1N(C)c1nc(-c2ccc(F)cc2)cs1` [Compound 58, 3-(4-(2-ethyl-3-((4-(4-fluorophenyl)thiazol-2-yl)(methyl)amino)imidazo[1,2-a]pyridin-6-yl)piperazin-1-ylsulfonyl)propan-1-ol], the IC50 is > 1000 nM.

As to `CCc1nc2ccc(C3=CCN(S(=O)(=O)CCCO)CC3)cn2c1N(C)c1nc(-c2ccc(F)cc2)cs1` [Compound 75, 3-(4-(2-ethyl-3-((4-(4-fluorophenyl)thiazol-2-yl)(methyl)amino)imidazo[1,2-a]pyridin-6-yl)-5,6-dihydropyridin-1(2H)-ylsulfonyl)propan-1-ol], the IC50 was > 1000 nM.

As to `CCc1nc2ccc(C3CCN(S(=O)(=O)CCCN(C)C)CC3)cn2c1N(C)c1nc(-c2ccc(F)cc2)c(CO)s1` [Compound 149, (2-((6-(1-(3-(dimethylamino)propylsulfonyl)piperidin-4-yl)-2-ethylimidazo[1,2-a]pyridin-3-yl)(methyl)amino)-4-(4-fluorophenyl)thiazol-5-yl)], the IC50 was > 1000 nM.

Take `CCc1nc2ccc(N3CCN(Cc4cnc[nH]4)CC3)cn2c1N(C)c1nc(-c2ccc(F)cc2)cs1` [Compound 192, N-(6-(4-((1H-imidazol-5-yl)methyl)piperazin-1-yl)-2-ethylimidazo[1,2-a]pyridin-3-yl)-4-(4-fluorophenyl)-N-methylthiazol-2-amine]: the IC50 is > 1000 nM.

Turning to `CCc1nc2ccc(C3CCN(S(C)(=O)=O)CC3)cn2c1N(C)c1nc(-c2ccc(F)cc2)c(C#N)s1` [Compound 136, 2-((2-ethyl-6-(1-(methylsulfonyl)piperidin-4-yl)imidazo[1,2-a]pyridin-3-yl)(methyl)amino)-4-(4-fluorophenyl)thiazole-5-carbonitrile], the IC50 is 0.01 to 100 nM.

The compound `CCc1nc2ccc(C3CCN(CC(=O)N4CC(CO)C4)CC3)cn2c1N(C)c1nc(-c2ccc(F)cc2)c(C#N)s1` [Compound 144, 2-((2-ethyl-6-(1-(2-(3-(hydroxymethyl)azetidin-1-yl)-2-oxoethyl)piperidin-4-yl)imidazo[1,2-a]pyridin-3-yl)(methyl)amino)-4-(4-fluorophenyl)thiazole-5-carbonitrile] returned an IC50 of 0.01 to 100 nM.

Turning to `CCc1nc2cc(F)c(N3CCN(CC(=O)N4CC(O)C4)CC3)cn2c1N(C)c1nc(-c2ccc(F)cc2)c(C#N)s1` [Compound 18, 2-[(2-Ethyl-7-fluoro-6-{4-[2-(3-hydroxy-azetidin-1-yl)-2-oxo-ethyl]-piperazin-1-yl}-imidazo[1,2-a]pyridin-3-yl)-methyl-amino]-4-(4-fluoro-phenyl)-thiazole-5-carbonitrile], the IC50 was in the range of 0.01 to 100 nM.

The compound `CCc1nc2ccc(C3CCN(CC(=O)N4CC(O)C4)CC3)cn2c1N(C)c1nc(-c2ccc(F)cc2)c(C#N)s1` [Compound 141, 2-((2-ethyl-6-(1-(2-(3-hydroxyazetidin-1-yl)-2-oxoethyl)piperidin-4-yl)imidazo[1,2-a]pyridin-3-yl)(methyl)amino)-4-(4-fluorophenyl)thiazole-5-carbonitrile] returned an IC50 of 0.01 to 100 nM.

`CCc1nc2ccc(N3CCN(CC(=O)N4CC(O)C4)CC3)cn2c1N(C)c1nc(-c2ccc(F)cc2)c(C#N)s1` [Compound 138, 2-((2-ethyl-6-(4-(2-(3-hydroxyazetidin-1-yl)-2-oxoethyl)piperazin-1-yl)imidazo[1,2-a]pyridin-3-yl)(methyl)amino)-4-(4-fluorophenyl)thiazole-5-carbonitrile] had an IC50 of 0.01 to 100 nM.

For `CCc1nc2ccc(N3CCN(Cc4ncc[nH]4)CC3)cn2c1N(C)c1nc(-c2ccc(F)cc2)cs1` [Compound 226, N-(6-(4-((1H-imidazol-2-yl)methyl)piperazin-1-yl)-2-ethylimidazo[1,2-a]pyridin-3-yl)-4-(4-fluorophenyl)-N-methylthiazol-2-amine], the IC50 is > 1000 nM.

With `CCc1nc2ccc(N3CCN(C(=O)[C@H](C)O)CC3)cn2c1N(C)c1nc(-c2ccc(F)cc2)cs1` [Compound 203, (S)-1-(4-(2-ethyl-3-((4-(4-fluorophenyl)thiazol-2-yl)(methyl)amino)imidazo[1,2-a]pyridin-6-yl)piperazin-1-yl)-2-hydroxypropan-1-one], the IC50 is > 1000 nM.

In the case of `CCc1nc2ccc(C3CCN(S(=O)(=O)CCN4CCOCC4)CC3)cn2c1N(C)c1nc(-c2ccc(F)cc2)cs1` [Compound 91], the IC50 was > 1000 nM.

`CCc1nc2ccc(N3CCN(S(C)(=O)=O)CC3)cn2c1N(C)c1nc(-c2ccc(Cl)cc2)ns1` [Compound 188, 3-(4-chlorophenyl)-N-(2-ethyl-6-(4-(methylsulfonyl)piperazin-1-yl)imidazo[1,2-a]pyridin-3-yl)-N-methyl-1,2,4-thiadiazol-5-amine]: the IC50 is > 1000 nM.

For `CCc1nc2ccc(C3CCN(S(C)(=O)=O)CC3)cn2c1N(C)c1nc(-c2ccc(F)cc2C#N)cs1` [Compound 96, 2-(2-((2-ethyl-6-(1-(methylsulfonyl)piperidin-4-yl)imidazo[1,2-a]pyridin-3-yl)(methyl)amino)thiazol-4-yl)-5-fluorobenzonitrile], the IC50 lay in the range of 0.01 to 100 nM.

Turning to `CCc1nc2c(F)cc(N3CCN(CC(=O)N4CC(O)C4)CC3)cn2c1N(C)c1nc(-c2ccc(F)cc2)cs1` [Compound 14, 2-(4-(2-ethyl-8-fluoro-3-((4-(4-fluorophenyl)thiazol-2-yl)(methyl)amino)imidazo[1,2-a]pyridin-6-yl)piperazin-1-yl)-1-(3-hydroxyazetidin-1-yl)ethanone], the IC50 was 0.01 to 100 nM.
